Like-named read-outs stand apart in the source and are kept apart here.
What was measured:
[1] = system: human papillomavirus; assay: Target identification by siRNA sensitization (TISS), human papillomavirus, HeLa cells; conditions: oxysterol at its EC50
Procedure: This mechanism of action vis-à-vis the rotavirus was therefore investigated, performing a target identification assay by means of sensitization with short interfering RNA (siRNA). The Caco2 cells (for the experiments with human rotavirus) or the HeLa cells (for the experiments with human papillomavirus) were seeded in a plate with 24 wells; during seeding, the cells were transfected with siRNA specific for OSBP and VAPA (at a concentration of 20 nM). […] After one day, the medium was removed and the cells inoculated with the respective viruses in the same time, temperature and MOI conditions described in the protocols of the infectivity or neutralization assays. The number of infected cells was evaluated as described in the preceding paragraphs.

[2] = system: human rotavirus (strain Wa); assay: Rotavirus yield reduction assay; format: cell-based
Procedure: The cells were treated at 37° C. with 25-, 27-, 7α-, 7β-hydroxycholesterol or 7-ketocholesterol at 5.6 μM for 20 hours, then washed with medium and infected with the human rotavirus at an MOI of 0.02 (strain Wa) activated with trypsin. After one hour, the cells were washed and fresh medium was added supplemented with 0.5 μg/ml of porcine trypsin. […] The assay was performed in triplicate and the results were confirmed on Caco2 cells. In an alternative protocol, the MA104 cells were treated with oxysterols—at the concentration indicated above—after the viral inoculum. The one-way variance analysis (ANOVA), followed by the Bonferroni test, was used to evaluate the statistical significance of the virus titre differences between the treated and non-treated samples. The significance was fixed at 95%.
The results of the pre-treatment assays are illustrated in FIGS. 5 (MA104 cells) and 6 (Caco2 cells).

[3] = system: adenovirus 5; conditions: for example the adenovirus 5; cited from earlier work
[4] = system: rhinovirus; conditions: cited from earlier work
[5] = system: human rotavirus HRV 408; assay: Infectivity assay for rotavirus, MA104 cells, strain HRV 408
Procedure: (§1) The strains of human rotavirus Wa (ATCC® VR-2018), WI61 (ATCC® VR-2551), HRV 408 (ATCC® VR-2273), HRV 248 (ATCC® VR-2274) and DS-1 (ATCC® VR-2550) were acquired from the American Tissue Culture Collection (ATCC); the viruses were activated with 5 μg/ml porcine pancreatic trypsin of type IX (Sigma, St. Louis, Mo.) for 30 minutes at 37° C. and propagated in MA104 cells using MEM containing 0.5 μg of trypsin per ml as described previously (27).
(§2) The antiviral effectiveness of the oxysterols of the invention was determined by means of infectivity inhibition assay. The assays were performed with confluent monolayers of MA104 cells seeded in plates with 96 wells, as described previously (28). […] The control samples were prepared by treating the cells with culture medium with the addition of equal volumes of ethanol. The cells were then washed with medium, and the rotavirus infection was performed at a multiplicity of infection (MOI) of 0.02. After the infection, the cells were washed with medium and incubated at 37° C. in an incubator humidified at 5% (vol/vol) CO2-95% (vol/vol) of air. After 16 hours, the infected cells were fixed with a cold acetone-methanol mixture (50:50), and the virus titres were determined by means of indirect immunocytochemistry. The inhibition of the virus infectivity was expressed as a percentage comparing the mean number of infective events in the treated and non-treated samples±the standard deviations. Where possible, the values of the oxysterol concentrations able to determine 50% or 90% of the antiviral effect (EC50 and EC90 respectively) were calculated by means of regression analysis using the dose-response curves generated by the experimental data, with the use of PRISM 5.00 (GraphPad Software, San Diego, Calif., USA).

[6] = system: human rhinovirus 1A; assay: Rhinovirus yield reduction assay; conditions: HeLa cells, 5.6 μM after infection, collected 5 days after the infection
Procedure: Each well was inoculated with 200 μl of a stock of human rhinovirus 1A containing approximately 30 PFU per well and incubated for 1 hour. […] The infected cells and the supernatants were collected 5 days after the infection (when a complete CPE was visible), and titred by means of the standard plaque method, as described above.

[7] = system: human rotavirus Wa; assay: Infectivity assay for rotavirus repeated on Caco2 cells, strain Wa; format: cell-based; conditions: Caco-2
From the text: The results of the antiviral assays performed treating with 25OHC and 27OHC were confirmed repeating the infectivity assays on Caco2 cells.

[8] = system: rotavirus; assay: Rotavirus cell entry kinetics; format: cell-based; conditions: MA104 cells
Procedure: To measure the entry speed of the rotavirus into the cells, confluent monolayers of MA104 cells (cultivated in plates with 96 wells) were treated with 25OHC, 27OHC or 7κC at 1.9 μM at 37° C.; after 20 hours, the cells were washed extensively with cold medium and left to cool on ice. […] The non-bound viruses were then eliminated by washing, medium was added at 37° C., and the plates were incubated at 37° C. in a humidified atmosphere. At fixed times (i.e. 0, 15, 30, 45, 60, 75 and 90 minutes after the virus-cell adhesion), the medium was extracted from the wells and the viral particles still present on the surface of the cells were eliminated by means of two rapid washing operations with EGTA 3 mM in PBS, followed by incubation in warm medium. After reaching the last time point (90 minutes from the virus-cell adhesion), the plates with 96 wells were placed in an incubator (37° C., 5% CO2), and the infection was left to proceed for a further 16 hours. The cells were then fixed and coloured as described above. The quantity of viral particles that entered the cells at each time point was compared with the quantity of virus that entered when no washing with EGTA was performed (100% entry). The ANOVA, followed by the Bonferroni test, was used to evaluate the statistical significance of the differences between the treated and non-treated samples. The significance was fixed at the level of 95%.
As a control experiment, the same treatment and infection protocol was performed on MA104 cells, cultivated in a plate with 6 wells. In this experiment, after reaching the last time point of the entry measurement (90 minutes), the cells were lysed, the proteins extracted were denatured by boiling for 5 minutes, then separated by electrophoresis on sodium dodecylsulfate gel with 12% polyacrylamide (SDS-12%PAGE) and transferred to a polyvinylidene difluoride (PVDF) membrane. The protein of the intermediate capsid VP6 was detected using the murine monoclonal antibody 2B4 (mab0036-P, CovalAb) at a dilution 1:750, followed by secondary antibody IgG-HRP (Santa Cruz Biotechnology Inc.). The actin was detected using the anti-actin murine monoclonal antibody MAB1501R (Millipore), followed by antibody IgG-HRP (Santa Cruz Biotechnology Inc.). The density of the bands was compared using the ImageJ software, and the intensity of the actin bands was used to normalize the values. The ANOVA, followed by the Bonferroni test, was used to evaluate the statistical significance of the differences between the treated and the non-treated samples. The significance was fixed at the level of 95%. The results are reported in FIG. 11 and are expressed as a percentage, comparing treated cells with cells incubated with culture medium.

[9] = system: HPV PsV (protein L1); assay: Assay for adhesion of the papillomavirus to the cell surface: Western blot analysis; format: cell-based, human papillomavirus; conditions: Hela cells treated 16 hours, PsV 4 hours at 4° C.
From the text: L1 was detected using the murine monoclonal antibody (Ab30908, Abcam, Cambridge, UK) at a dilution of 1:2000, followed by secondary antibody IgG-HRP (Santa Cruz Biotechnology Inc.). The actin was detected using an anti-actin murine monoclonal antibody (MAB1501R, Millipore), followed by secondary antibody IgG-HRP (Santa Cruz Biotechnology Inc.).

[10] = system: human rotavirus HRV 248; assay: Infectivity assay for rotavirus, MA104 cells, strain HRV 248
Procedure: as §1, §2

[11] = system: LXR; conditions: cited from earlier work
[12] = system: human rhinovirus 1A; assay: Infectivity assay with rhinovirus (plaque count, HeLa cells)
Procedure: The human rhinovirus 1A (ATCC® VR-1559) was acquired from ATCC. The virus was propagated in HeLa cells, at 33° C. with 5% of CO2. When the cytopathic effect (CPE) had fully developed, cells and supernatants were collected, frozen and thawed three times, clarified and divided into aliquots. The viruses were kept at −70° C. The rhinovirus titres were determined by means of the standard plaque assay. In short, the HeLa cells were seeded 2 days prior to the infection in plates with 96 wells, reaching 60%-70% confluence at the time of the infection. The viral suspension was serially diluted in DMEM supplemented with 2% fetal bovine serum and inoculated; the infected wells were incubated at 33° C. for 1 hour, allowing the viruses to adhere and enter the cells. The cells were subsequently washed with medium and covered with a 1:1 mixture of 1.6% SeaPlaque agarose (BioWhittaker Molecular Applications) and DMEM 2X [26.76 g DMEM (Gibco BRL), 20 ml of L-glutamine (Gibco BRL), 4.4 g of sodium bicarbonate (Sigma, St. Louis, Mo.), FBS 40 ml (Sigma, St. Louis, Mo.) and 1000 ml of water]. The plates were incubated at 33° C. for 3 days. At the end of the incubation, the plates were fixed with 7.5% formaldehyde (Fluka) and coloured with crystal violet (Sigma, St. Louis, Mo.). The number of plaques formed was then counted; the virus titres were expressed in terms of plaque-forming units per ml (PFU/ml).
The HeLa cells, kept in DMEM supplemented with 10% FBS and 1% Zell Shield, were seeded (at 8×10^4 cells/well) in plates with 24 wells. The medium was removed and the cells were infected with 200 microlitres/well containing approximately 30 PFU of a stock of human rhinovirus 1A. The infected cells were incubated at 33° C. for 1 h, allowing the virus to adhere and enter the cells. […] The plates were incubated at 33° C. for 5 days. After the incubation, the plates were fixed with formaldehyde at 7.5% (Fluka), coloured with crystal violet (Sigma, St. Louis, Mo.) and the number of plaques formed was counted. The oxysterol concentration values able to determine 50% or 90% of the antiviral effect (EC50 and EC90 respectively) were calculated by means of regression analysis using the dose-response curves generated by the experimental data, using PRISM 5.00 (GraphPad Software, San Diego, Calif., USA).

[13] = system: PsV of HPV-16; assay: microbe, parasite or virus in culture; format: cell-based, human papillomavirus
[14] = system: human rotavirus WI61; assay: Infectivity assay for rotavirus, MA104 cells, strain WI61
Procedure: as §1, §2

[15] = system: human rotavirus Wa; assay: Infectivity assay for rotavirus, MA104 cells, strain Wa
Procedure: as §1, §2

[16] = pre-treatment assay, 20 hours prior to the infection

For C[C@H](CCCC(C)(C)O)[C@H]1CC[C@H]2[C@@H]3CC=C4C[C@@H](O)CC[C@]4(C)[C@H]3CC[C@]12C [25OHC, 25-hydroxycholesterol], the “antiviral activity in cells with OSBP silenced” value ([1]; OSBP siRNA 20 nM) was “higher”, the “antiviral activity in cells with VAP-A silenced” value ([1]; VAPA siRNA 20 nM) was “higher” and the “production of virus progenies” value ([2]; Caco2 cells, pre-treatment 5.6 μM for 20 hours, collected 48 hours after infection) was “significantly limit (p<0.05) the production of virus progenies”. For the same molecule, the “production of virus progenies” value ([2]; MA104 cells, post-infection treatment 5.6 μM) was “confirm the in vitro effectiveness”, the “production of virus progenies” value ([2]; MA104 cells, pre-treatment 5.6 μM for 20 hours, collected 48 hours after infection) was “significantly limit (p<0.05) the production of virus progenies” and the “effectiveness on naked viruses” value [3] was “not effective on naked viruses”. For the same molecule, the “replication of the genoma of the rhinovirus” value [4] was “able to inhibit replication of the genoma”, the “rhinovirus entry into the host cell” value [4] was “not entry into the host cell” and the EC50 [5] was 120 nM. For the same molecule, the EC90 [5] was 420 nM, the “production of viral progenies” value [6] was “totally inhibit the production of viral progenies” and the EC50 [7] was 190 nM. The EC90 [7] was 1260 nM, the “entry of the rotavirus into the cells (infective events)” value ([8]; 1.9 μM for 20 hours, MOI 0.02) was “totally inhibit the ability of the rotavirus to penetrate into the host cells” and the “viral antigen VP6 within the cells (Western blot)” value ([8]; 90 minutes after virus-cell adhesion) was “significantly (p<0.05) lower quantity than the non-treated control”. For the same molecule, the “adhesion of the PsV to the cell surface (L1 Western blot)” value [9] was “not able to inhibit adhesion of the PsV to the cell surface”, the EC50 [10] was 110 nM and the EC90 [10] was 1260 nM. The LXR ligand activity [11] was “optimal ligands of LXR”, the EC50 ([12]; post-infection treatment assay) was 160 nM and the EC90 ([12]; post-infection treatment assay) was 410 nM. It also gave an EC50 [12, 16] of 290 nM, an EC90 [12, 16] of 540 nM and an EC50 ([13]; C33A cells, treated 16 hours before PsV, read-out: EC50) of 2060 nM. The EC50 ([13]; Human papillomavirus, HeLa) was 2190 nM, the EC50 ([13]; Human papillomavirus, SiHa) was 14800 nM and the EC50 [14] was 90 nM. It also gave an EC90 [14] of 280 nM, an EC50 [15] of 160 nM and an EC90 [15] of 1370 nM.
